The test system of the test is transgenic Arabidopsis plants overexpressing Synechocystis HPPD (Seq ID: 20). Nature of the test: Arabidopsis growth inhibition in 48-well plates, line overexpressing Synechocystis HPPD. The following applies: Synechocystis (Seq ID: 20) overexpression line; plant growth IC50 of transgenic divided by that of wildtype plants. Format: in vivo, Arabidopsis thaliana. The text has this:
Various methods for the production of stably transformed plants are well known in the art. Coumarone-derivative herbicide tolerant soybean (Glycine max) or corn (Zea mays) plants can be produced by a method described by Olhoft et al. (US patent 2009/0049567). Briefly, HPPD or HST encoding polynucleotides are cloned into a binary vector using standard cloning techniques as described by Sambrook et al. (Molecular cloning (2001) Cold Spring Harbor Laboratory Press). The final vector construct contains an HPPD or HST encoding sequence flanked by a promoter sequence (e.g. the ubiquitin promoter (PcUbi) sequence) and a terminator sequence (e.g. the nopaline synthase terminator (NOS) sequence) and a resistance marker gene cassette (e.g. AHAS) (FIG. 2). Optionally, the HPPD or HST gene can provide the means of selection. Agrobacterium-mediated transformation is used to introduce the DNA into soybean's axillary meristem cells at the primary node of seedling explants. After inoculation and co-cultivation with Agrobacteria, the explants are transferred to shoot induction medium without selection for one week. […]
Depending on the species, the plants are kept at 10-25° C. or 20-35° C. […] During this time, the plants are tended and their response to the individual treatments is evaluated. […] Tolerance to coumarone-derivative herbicides can also be assessed in Arabidopsis. […]

With `CC1=NOC(c2c(Cl)ccc(C3=C(O)c4ncccc4C(C)(C)S3(=O)=O)c2Cl)C1` (centres unmarked) [Inhibitor 1, 7-[2,4-dichloro-3-(3-methyl-4,5-dihydroisoxazol-5-yl)phenyl]-5,5-dimethyl-6,6-dioxo-thiopyrano[4,3-b]pyridin-8-ol], the Tolerance factor is 1.
In the case of `CC1(C)c2cccnc2C(O)=C(c2ccc(Cl)nc2Cl)S1(=O)=O` [Inhibitor 2, 7-(2,6-dichloro-3-pyridyl)-5,5-dimethyl-6,6-dioxo-thiopyrano[4,3-b]pyridin-8-ol] it was 1.

The values are drawn from patent publication US20140357487A1, “PLANTS HAVING INCREASED TOLERANCE TO HERBICIDES” (BASF SE, priority 2011, published 2014).
